The values below come from ChEMBL document CHEMBL1153189, “The comparative antimalarial properties of weak base and neutral synthetic ozonides” (Bioorg Med Chem Lett, 2010).

SMILES strings stand for the structures. Some results are limits rather than exact numbers.

For data set [1], the system named is Rattus norvegicus. The data set can be described thus: (§1) Half life in Sprague-Dawley rat at 10 mg/kg, iv. On the set-up: dose 10 mg/kg, route intravenous. As to conditions: in vivo; call rule not given here. Type of data set: ADME, organism-based.
Data set [2] concerns Rattus norvegicus. The data set is described as follows: (§2) Volume of distribution in Sprague-Dawley rat at 10 mg/kg, iv. Type of data set: ADME, organism-based. As to conditions: in vivo. Set-up: dose 10 mg/kg, route intravenous.
Data set [3] is described as follows: in vitro. Particulars: human, liver microsomes.
Description: Metabolic stability in human liver microsomes assessed as hepatic extraction ratio
Data set [4] relates to Plasmodium berghei. The data set is described as follows: Antimalarial activity against Plasmodium berghei infected in NMRI mice (Mus musculus) assessed as survival time at 3 mg/kg, perorally administered for 3 days post infection. Type of data set: functional. As to conditions: route oral.
Data set [5] is described as follows: Oral bioavailability in Sprague-Dawley rat at 10 mg/kg. Type of data set: ADME, organism-based. Particulars: in vivo.
For data set [6], the system named is Plasmodium berghei. The data set can be described thus: Antimalarial activity against Plasmodium berghei infected in NMRI mice (Mus musculus) assessed as reduction in parasitaemia at 10 mg/kg, perorally administered 1 day post infection. The format is functional. Set-up: scale not given: the % may be the effect or the level left. As to conditions: route oral.

Data set [7] deals with Plasmodium berghei. The data set is described as follows: Antimalarial activity against Plasmodium berghei infected in NMRI mice (Mus musculus) assessed as reduction in parasitaemia at 3 mg/kg, perorally administered for 3 days post infection. The format is functional. On the set-up: scale not given: the % may be the effect or the level left. As to conditions: route oral.

Data set [8] has as its target T1, Cytochrome P450 2C9 (Homo sapiens, UniProt P11712). The data set can be described thus: Inhibition of CYP2C9. Type of data set: ADME.
Data set [9] deals with T2, Cytochrome P450 3A4 (Homo sapiens, UniProt P08684). The data set is described as follows: Inhibition of CYP3A4. The format is ADME.
T2 sequence (P08684 whole entry): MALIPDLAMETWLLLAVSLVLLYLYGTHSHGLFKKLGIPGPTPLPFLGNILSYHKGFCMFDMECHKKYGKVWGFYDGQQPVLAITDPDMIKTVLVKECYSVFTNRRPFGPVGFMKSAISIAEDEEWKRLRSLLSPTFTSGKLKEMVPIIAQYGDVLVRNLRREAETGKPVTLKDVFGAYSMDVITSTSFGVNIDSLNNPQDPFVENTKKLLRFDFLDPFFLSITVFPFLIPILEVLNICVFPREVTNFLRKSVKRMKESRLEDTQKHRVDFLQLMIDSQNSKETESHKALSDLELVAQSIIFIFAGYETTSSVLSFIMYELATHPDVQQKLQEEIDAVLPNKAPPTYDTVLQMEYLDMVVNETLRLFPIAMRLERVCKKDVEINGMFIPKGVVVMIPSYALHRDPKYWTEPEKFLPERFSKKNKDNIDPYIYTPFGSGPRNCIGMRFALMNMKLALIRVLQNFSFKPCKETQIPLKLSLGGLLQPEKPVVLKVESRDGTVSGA
The target in data set [10] is T3, Cytochrome P450 2D6 (Homo sapiens, UniProt P10635). The data set can be described thus: Inhibition of CYP2D6. The format is ADME.
T3 sequence (P10635 whole entry): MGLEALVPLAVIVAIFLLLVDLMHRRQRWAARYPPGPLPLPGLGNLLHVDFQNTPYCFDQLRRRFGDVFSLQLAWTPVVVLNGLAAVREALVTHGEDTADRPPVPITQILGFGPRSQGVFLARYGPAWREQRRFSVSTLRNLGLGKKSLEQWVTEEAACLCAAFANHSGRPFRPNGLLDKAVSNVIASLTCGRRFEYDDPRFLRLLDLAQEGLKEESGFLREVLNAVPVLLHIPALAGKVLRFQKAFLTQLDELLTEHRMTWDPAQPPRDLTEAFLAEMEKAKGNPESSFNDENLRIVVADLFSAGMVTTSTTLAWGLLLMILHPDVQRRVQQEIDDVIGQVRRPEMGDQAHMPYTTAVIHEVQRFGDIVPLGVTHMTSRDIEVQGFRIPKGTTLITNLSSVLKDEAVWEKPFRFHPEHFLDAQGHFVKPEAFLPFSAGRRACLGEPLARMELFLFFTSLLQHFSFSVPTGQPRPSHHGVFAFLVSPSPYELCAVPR
For data set [11], the target named is Cytochrome P450 2C19 (Homo sapiens, UniProt P33261). The data set is described as follows: Inhibition of CYP2C19. Type of data set: ADME.
Sequence of Cytochrome P450 2C19 (P33261 whole entry): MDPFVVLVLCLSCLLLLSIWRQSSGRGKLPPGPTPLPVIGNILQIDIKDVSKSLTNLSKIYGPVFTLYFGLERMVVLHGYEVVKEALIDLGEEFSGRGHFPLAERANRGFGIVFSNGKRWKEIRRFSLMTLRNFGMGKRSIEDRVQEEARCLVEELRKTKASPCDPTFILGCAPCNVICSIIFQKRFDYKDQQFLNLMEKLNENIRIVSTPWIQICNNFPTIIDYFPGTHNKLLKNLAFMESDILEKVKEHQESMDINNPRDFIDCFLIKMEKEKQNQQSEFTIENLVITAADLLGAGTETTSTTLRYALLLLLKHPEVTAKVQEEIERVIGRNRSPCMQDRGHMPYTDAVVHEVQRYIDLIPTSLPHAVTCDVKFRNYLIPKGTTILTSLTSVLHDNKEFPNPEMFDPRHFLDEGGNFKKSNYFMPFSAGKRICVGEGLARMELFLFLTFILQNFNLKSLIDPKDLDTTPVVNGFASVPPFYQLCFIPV
In data set [12] the test system is Plasmodium berghei. The data set is described as follows: Antimalarial activity against Plasmodium berghei infected in NMRI mice (Mus musculus) assessed as cure rat at 3 mg/kg, perorally administered for 3 days post infection measured after 30 days. Particulars: route oral. The format is functional.
The nature of data set [13]: Lipophilicity, log D at pH 7.4. Type of data set: physicochemical. As to conditions: buffer.
A short description of data set [14]: Plasma concentration in rat at 100 mg/kg, po after 5 days. Type of data set: ADME, organism-based. On the set-up: dose 100 mg/kg, route oral.
Data set [15] has as its target T1, Cytochrome P450 2C9. The data set can be described thus: Inhibition of CYP2C9 up to 50 uM. Type of data set: ADME.
In data set [16] the test system is Plasmodium falciparum. The data set is described as follows: Antimalarial activity against chloroquine-sensitive Plasmodium falciparum NF54. The format is functional, organism-based.
The subject of data set [17] is Plasmodium falciparum. The data set is described as follows: Antimalarial activity against chloroquine-resistant Plasmodium falciparum K1. The format is functional, organism-based.
Data set [18] deals with T2, Cytochrome P450 3A4. The data set is described as follows: Inhibition of CYP3A4 up to 50 uM. The format is ADME.
Data set [19] deals with Rattus norvegicus. The data set is described as follows: Plasma concentration in rat at 300 mg/kg, po after 5 days. The format is ADME, organism-based. Set-up: dose 300 mg/kg, route oral. As to conditions: in vivo, 120 h.
The target in data set [20] is T3, Cytochrome P450 2D6. The data set is described as follows: Inhibition of CYP2D6 up to 50 uM. Type of data set: ADME.
The nature of data set [21]: as §1. Type of data set: ADME, organism-based. Set-up: dose 10 mg/kg, route intravenous. Particulars: Sprague-Dawley, in vivo.
Data set [22] is described as follows: as §2. Type of data set: ADME, organism-based. Set-up: dose 10 mg/kg, route intravenous. As to conditions: Sprague-Dawley, in vivo.
A short description of data set [23]: Blood clearance in Sprague-Dawley rat at 10 mg/kg, iv. Type of data set: ADME, organism-based. Set-up: dose 10 mg/kg, route intravenous. Particulars: whole blood.

T1 sequence (P11712 whole entry): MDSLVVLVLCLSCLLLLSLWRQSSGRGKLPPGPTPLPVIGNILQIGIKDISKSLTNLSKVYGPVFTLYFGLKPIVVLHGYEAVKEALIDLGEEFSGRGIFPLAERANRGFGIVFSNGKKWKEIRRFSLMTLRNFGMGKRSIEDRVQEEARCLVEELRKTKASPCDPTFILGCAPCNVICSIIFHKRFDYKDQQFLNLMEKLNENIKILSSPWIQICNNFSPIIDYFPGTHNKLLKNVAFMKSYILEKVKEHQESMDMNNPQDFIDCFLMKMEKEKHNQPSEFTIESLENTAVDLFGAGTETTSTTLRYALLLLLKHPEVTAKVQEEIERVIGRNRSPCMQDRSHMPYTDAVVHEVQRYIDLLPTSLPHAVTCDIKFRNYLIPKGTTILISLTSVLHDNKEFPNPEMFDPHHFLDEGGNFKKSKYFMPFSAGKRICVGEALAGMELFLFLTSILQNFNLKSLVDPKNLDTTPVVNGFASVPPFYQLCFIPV

Compound `NC[C@H]1CC[C@]2(CC1)OOC1(O2)C2CC3CC(C2)CC1C3` (stereo not given in full) showed a t1/2 in data set [1] of 90 min. In data set [2], this compound yielded a Vd of 46 L/kg. The hepatic extraction ratio in data set [3] was 0.24. Further, in [4], the Survival turned out to be 12.8 days. In data set [5], this compound had a bioavailability of 31%. Further, the Activity is listed as >99.9% in data set [6], >99.9% in data set [7], “Not Active” in data set [10] and 0% in data set [12]. In addition, the values for the IC50 in [8], in data set [9] and in [11] were 17 µM, 9.7 µM and 0.11 µM, respectively. This compound also yielded a logD in data set [13] of 2.6.
In data set [14], `Cc1ccc(S(=O)(=O)O)cc1.N[C@H]1CC[C@H](NC(=O)C(=O)NC[C@H]2CC[C@]3(CC2)OO[C@]2(O3)C3CC4CC(C3)CC2C4)CC1` displayed a concentration at 120 h of 3.7 µg/mL. In addition, the Survival in [4] was determined as 25.2 days. In addition, the Activity entry is recorded as “Not Active” in data set [15]; 99.9% in [6]; >99.9% in data set [7]; “Not Active” in [18]; “Not Active” in data set [20]; 40% in data set [12]. The IC50 in data set [16] turned out to be 1.3 ng/mL; in data set [17], 0.7 ng/mL. This compound also yielded a Cp in data set [19] of 100 mg/kg.
In the case of `Cc1ccc(S(=O)(=O)O)cc1.O=C(CN1CCS(=O)(=O)CC1)NC[C@H]1CC[C@]2(CC1)OO[C@]1(O2)C2CC3CC(C2)CC1C3`, the figures for the IC50 in [16] and in data set [17] were 5.5 ng/mL and 4.6 ng/mL, respectively. The Activity in [6] worked out at 86%. Besides, in data set [13], the logD stood at 4.5.
In [21], `C[C@H]1[C@@H](O)O[C@@H]2O[C@@]3(C)CC[C@H]4[C@H](C)CC[C@@H]1[C@@]24OO3` [ARTENIMOL] came in with a half-life of 26 min. The same compound yielded a Vd in data set [22] of 3 L/kg. In data set [23], this compound returned a clearance of 4.32 L/h/kg.
For `C[C@H]1[C@H](OC(=O)CCC(=O)O)O[C@@H]2O[C@@]3(C)CC[C@H]4[C@H](C)CC[C@@H]1[C@@]24OO3` [ARTESUNATE], the Activity in data set [6] was 67%; in data set [7] it was 70%; in [12], 0%. For the same compound, in data set [13], the logD came to 3.5.
